From article PMC11306024, “Novel metabolite madeirone and neomarinone extracted from Streptomyces aculeoletus as marine antibiofilm and antifouling agents” (Frontiers in Chemistry, 2024)
Like-named read-outs stand apart in the source and are kept apart here.

What was measured:
P. batsensis = assay: Antibiofilm activity (inhibition of biofilm formation); type: cell-based, Pseudo-oceanicola batsensis DSM 15984; settings: for inhibition at 0.98 µg/mL / inhibition at 1.95 µg/mL / inhibition at 3.91 µg/mL / inhibition at 7.81 µg/mL / inhibition at 15.6 µg/mL / inhibition at 31.25 µg/mL: 48 h; for inhibition at 15.6 µg/mL: 15.60 µg/mL
Method: To assess antimicrofouling activity, we selected five marine bacterial species as models: Marinobacter hydrocarbonoclasticus DSM 8798 (ATCC 49840), C. marina DSM 4741, Phaeobacter inhibens DSM 17,395, Pseusooceanicola batsensis DSM 15,984, and Micrococcus luteus DSM 20030 (ATCC 4698) ([Michael et al., 2016]). These strains, sourced from DSMZ (Leibniz Institute DSMZ—German Collection of Microorganisms and Cell Cultures), were cultured in liquid marine broth (Carl Roth GmbH, Karlsruhe, Germany) with agitation at 180 rpm or on agar-supplemented marine broth. Incubation temperatures were set at 28°C for M. hydrocarbonoclasticus and Cobetia marina, 30°C for P. inhibens and P. batsensis, while M. luteus was maintained at 37°C in Brain Heart Infusion broth (BHI, Becton Dickinson, GmbH, Heidelberg, Germany) under similar agitation conditions.
The antibiofilm potential of compounds (1) and (2) against the five marine bacterial species was investigated in 96-well polystyrene flat-bottom microplates (Nunclon Delta Surface, Thermo Scientific, Roskilde, Denmark), as described previously ([Bauermeister et al., 2019]; [Pereira et al., 2020]). In the initial screening, bacterial overnight cultures were diluted to an OD600 of 0.2 and incubated statically at appropriate temperatures. The cultures were tested at 31.25, 15.60, 7.81, 3.91, 1.95, 0.98 μg/mL concentrations (2-fold serial dilutions) of compounds (1) and (2), solubilized in DMSO, or left untreated. After 24 h (M. hydrocarbonoclasticus, C. marina) or 48 h (P. batsensis, P. inhibens, M. luteus) incubation, OD600 was measured. The planktonic cells and media were discarded, and the wells were washed twice with deionized water. Biofilms were fixed, stained, and quantified by measuring the OD600 after solubilization with acetic acid. Biofilm inhibition percentages were calculated relative to untreated bacterial species, using DMSO as a negative control and CuSO4 (0.16 μg/mL), as a positive control. All assays were performed in triplicate, and the results represent the mean and standard error of the mean (SEM). Statistical analysis was conducted using GraphPad Prism 8.0.2, employing one-way ANOVA followed by Dunnett’s multiple comparisons test against the negative control.

[1] = Mussel larvae acute toxicity (mortality); settings: Mytilus galloprovincialis, in vivo, other: waterborne exposure in 24-well plates; 15 h acute exposure
Method: The in vivo antimacrofouling activity of compounds (1) and (2) was evaluated against mussel M. galloprovincialis adhesive larvae (plantigrades) in an acute bioassay. Juvenile mussel aggregates were harvested from the intertidal rocky shore during low spring tides at Memória beach, Matosinhos, Portugal. In the laboratory, precisely before the bioassays, mussel plantigrade larvae were meticulously screened and isolated from the juvenile aggregates using a binocular microscope (Olympus SZX2-ILLT, Hamburg, Germany). The isolated larvae were then washed with filtered seawater to eliminate organic debris, and competent plantigrade larvae, characterized by foot exploratory behavior, were selected for the exposure bioassays, following established protocols ([Almeida et al., 2017]; [Almeida et al., 2020]; [Antunes et al., 2019]; [Mabrouk et al., 2020]). Plantigrades were exposed in 24-well polystyrene plates for 15 h in darkness at 18°C. DMSO served as the solvent for the testing compounds in stock and working solutions. The DMSO concentration in the tested solutions was consistently maintained at 0.1%. […] The anti-settlement bioactivity was assessed based on the presence or absence of fixed byssal threads produced by each individual larva for all tested conditions. […] EC50 values for each compound were calculated using Probit regression analysis. […]

Daphnia magna = settings: 100 µg/mL
Method: The in vivo evaluation of compounds (1) and (2) for acute toxicity was performed towards marine bacterium Aliivibrio fischeri, and planktonic crustacean Daphnia magna. The chronic ecotoxicity tests were evaluated using algae Pseudokirchneriella subcapitata and Phaeodactylum tricornutum.
The immobilization of D. magna at 24 h and 48 h was studied following a micro adaptation of the OECD Guideline 202 procedures (“Daphnia sp., Acute Immobilisation Test and Reproduction Test”), using the Daphtoxkit F (Microbiotests, Gent, Belgium). Firstly, the ISO matrix medium was prepared, aerated and adjusted to pH 7. Next, the neonate daphnids were incubated for 72 h at 20 ± 1°C with light and fed spirulina 2 h prior to use, according to the manufacturer’s instructions. […] For the miniaturization of the procedure, one daphnid neonate was exposed to each compound in 10 mL sterile tubes containing 2 mL of ISO matrix medium, with the compounds at the determined concentrations. The assays were performed in triplicate.

| SMILES | inhibition at 0.98 µg/mL (P. batsensis) [%] | inhibition at 1.95 µg/mL (P. batsensis) [%] | inhibition at 3.91 µg/mL (P. batsensis) [%] | inhibition at 7.81 µg/mL (P. batsensis) [%] | inhibition at 15.6 µg/mL (P. batsensis) [%] | inhibition at 31.25 µg/mL (P. batsensis) [%] | LC50 at 15 h [1] [µg/mL] | Biofilm inhibition, up to (highest over tested concentrations) P. batsensis (P. batsensis; 0.98-31.25 µg/mL tested) | Inhibition (%) D. magna (immobilization) (Daphnia magna; listed as Neomarinone (2)) [%] | Inhibition (%) D. magna (immobilization) (Daphnia magna; listed as neomarinone (2)) [%] |
| --- | --- | --- | --- | --- | --- | --- | --- | --- | --- | --- |
| CC1=CCC[C@@H](C)[C@]1(C)CC[C@@]1(C)c2c(O)cc3c(c2O[C@@H]1C)C(=O)C=C(CO)C3=O (relative stereo) [compound 1, madeirone] | 10.8 ± 1.7 | 17.9 ± 2.4 | 24.9 ± 2.9 | 34.8 ± 2.7 | 49.1 ± 0.7 | 59.2 ± 0.4 | > 10 |  |  |  |
| CC1=CCC[C@@H](C)[C@]1(C)CC[C@@]1(C)c2c(O)cc3c(c2O[C@@H]1C)C(=O)C(C)=C(O)C3=O [compound 2, neomarinone] | 11.7 ± 6.2 | 13.9 ± 5.7 | 19.4 ± 4 | 26.3 ± 5.9 | 34.9 ± 4.8 | 40.7 ± 4.7 | > 4 | up to 40% | 33.0 | 33 |
